Reference: PMC11445189 (Frontiers in Toxicology, 2024)
Marks after values point to notes of the source that are not given here.

Assays:
[1] = tested on: zebrafish embryos; assay: Single toxicity test for zebrafish embryos (ECx); format: in vivo; conditions: for EC50: Danio rerio, 144 h, read-out: EC50 (95% CI); for EC50 / EC5 (95% CI) / EC15 (95% CI) / EC25 (95% CI): embryonic toxicity (lethality + abnormality), embryo-larva stage, 6 days exposure, probit; for toxicity to zebrafish embryos, individually: at high concentrations, 500 and 1,000 μg/mL
Protocol: (§1) Zebrafish embryos were obtained from adult zebrafish continuously sub-cultured in Korea Institute Toxicology Laboratory, Republic of Korea and were maintained at 26°C ± 1°C in a climate chamber (16 h daylight: 8 h darkness) until use for toxicity tests ([Park et al., 2022]). […] At 6 days after exposure, embryonic toxicity (%) was scored as follows: [embryonic toxicity (%) = lethality (dead embryo + dead larva) + abnormality (unhatched eggs + abnormal larva)/initial embryos × 100]. Developmental abnormality of zebrafish was investigated based on apical phenotypic observation, such as coagulated embryos, lack of somite formation, non-detachment of the tail, and lack of heartbeat for 6 days after exposure ([OECD, 2013]). Embryonic toxicity (%) was used for estimating the effective concentration values (ECx) for each chemical and 95% confidence limits, by concentration-response curves (CETIS program version 1.8.7.15, Tidepool Scientific Software, United States) ([Park et al., 2022]).

[2] = tested on: cyp1b1; assay: qRT-PCR transcriptional alteration in zebrafish embryos; format: in vivo; conditions: single chemical 10 ng/mL, 6 days, normalized to β-actin
Protocol: (§2) To verify the developmental effects in zebrafish embryos caused by exposure to realistic mixtures, mixture toxicity tests with zebrafish embryos were performed at a range of environmentally relevant concentrations, and three exposure concentrations at a 1:1 mixing ratio (i.e., 1, 10, and 100 ng/mL of each chemical). […] Realistic mixture toxicity tests using zebrafish embryos were performed under the same conditions as the single-toxicity tests.
(§3) To examine the transcriptional alteration of target genes linked to zebrafish embryonic development, The total RNA from 20 zebrafish embryos was extracted using a RNeasy Mini kit (Qiagen, Hilden, Germany), following the manufacturer’s instructions. The total RNA concentration was measured spectrophoto-metrically at 260/280 nm using a Gen5™ spectrophotometer (BioTek®, Winooski, VT, United States). […]
(§4) The primer sequences for target genes were designed to use for quantitative real-time polymerase chain reaction (qRT–PCR): namely aryl hydrocarbon receptor 2 (ahr2), cytochrome P450 monooxygenases (i.e., cyp1a1 and cyp1b1), nuclear factor erythroid 2-related factors (i.e., nrf1a and nrf2a), tumor suppressor gene (p53), thyroid stimulating hormone beta subunit (tsh-β), and thyroid hormone receptors (i.e., thraa and thrb) (Supplementary Table S1) ([Fan et al., 2018]; [Liu et al., 2011]; [Ren et al., 2020]; [Williams et al., 2013]). […]

[3] = tested on: cyp1a1; assay: as above; format: in vivo; conditions: single chemical 10 ng/mL, 6 days, normalized to β-actin
Protocol: as §2, §3, §4

[4] = tested on: zebrafish embryos; assay: Realistic mixture toxicity test, embryonic toxicity; format: in vivo; conditions: single chemical 10 ng/mL, 6 days after exposure
Protocol: as §1
To verify the developmental effects in zebrafish embryos caused by exposure to realistic mixtures, mixture toxicity tests with zebrafish embryos were performed at a range of environmentally relevant concentrations, and three exposure concentrations at a 1:1 mixing ratio (i.e., 1, 10, and 100 ng/mL of each chemical). […]

[5] = ref Mason et al., 2013, cited from earlier work
[6] = tested on: sheepshead minnow; conditions: acute toxicity, ref Gibbons et al., 2015; cited from earlier work

With CN/C(=N\[N+](=O)[O-])NCc1cnc(Cl)s1 [CLO, Clothianidin] the EC50 [1] was 411 µg/mL, the “toxicity to zebrafish embryos, individually” value [1] was “toxic” and the “EC5 (95% CI)” value [1] was 65.28 (N.C.–104.61) µg/mL. For the same compound, the “EC15 (95% CI)” value [1] was 255.72 (224.61–289.12) µg/mL, the “EC25 (95% CI)” value [1] was 292.89 (247.77–332.07) µg/mL and the “Relative fold change of gene expression, cyp1b1” value [2] was 1.36±0.34^a. For the same compound, the “Relative fold change of gene expression, cyp1a1” value [3] was 0.38±0.06^a, the “Embryonic toxicity (%)” value [4] was 12.5 ± 3.4% and the half-life in sediment ([5]; sediment) was 56 days. The half-life in soil ([5]; soil) was “up to 1,386 days” and the “50% lethal concentration (LC50)” value [6] was 161 µg/mL.
With O=[N+]([O-])NC1=NCCN1Cc1ccc(Cl)nc1 [IMD, imidacloprid] the EC50 [1] was 268 µg/mL, the “toxicity to zebrafish embryos, individually” value [1] was “toxic” and the “EC5 (95% CI)” value [1] was 60.80 (N.C.–108.36) µg/mL. For the same compound, the “EC15 (95% CI)” value [1] was 145.69 (113.89–158.99) µg/mL, the “EC25 (95% CI)” value [1] was 175.04 (146.25–196.54) µg/mL and the “Embryonic toxicity (%)” value [4] was 12.5 ± 2.8%. The “50% lethal concentration (LC50)” value [6] was 93.6 µg/mL.
